Test systems include SR; SNB-19; LOX IMVI; MCF7; SF-295; CCRF-CEM; Malme-3M; DU-145; SN12C; HOP-92; HOP-62; RPMI-8226; BT-549; ACHN; NCI-H226; OVCAR-3; UACC-62; M14.
Common to all, as to experiment: NCI anticancer screen, dose series, 48 h

This note sets out measurements from ChEMBL document CHEMBL1201862, “PubChem BioAssay data set” (2004).

Each structure is given as a SMILES string.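 Grown in 96-well plates, cells were treated for 48 hours with each compound at five concentrations. Insufficient inhibition: endpoint recorded as highest concentration tested. GI50 = concentration required for 50% inhibition of growth.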 Active and inactive are the calls of the source. Rule as the data show it: active = GI50 up to about 1.1 µM and inactive = higher.

On to `CCOC(=O)Nc1sc2c(c1C#N)CCCC2`, for which the GI50 with SR was 75 µM (inactive); in the assay on SNB-19, 89.5 µM (inactive); in the assay on LOX IMVI, 63.8 µM (inactive); in the assay with MCF7, > 100 µM (inactive); in the assay with SF-295, > 100 µM (inactive); with CCRF-CEM, 64.9 µM (inactive). In addition, the GI50 is > 100 µM (inactive) with Malme-3M; > 100 µM (inactive) in the assay on DU-145; > 100 µM (inactive) with SN12C; 47.3 µM (inactive) with HOP-92; > 100 µM (inactive) in the assay on HOP-62; 33 µM (inactive) with RPMI-8226. Besides, the GI50 in the assay on BT-549 was 49 µM (inactive); in the assay on ACHN, > 100 µM (inactive); in the assay with NCI-H226, 89.5 µM (inactive); in the assay on OVCAR-3 it was > 100 µM (inactive); with UACC-62, 67.1 µM (inactive).
On to `COc1cccc2cc(C(C)=O)c(=O)oc12`, for which the GI50 in the assay with SR, with M14, in the assay on LOX IMVI, with MCF7, with SF-295 and in the assay with CCRF-CEM was > 100 µM (inactive) in each case. Moreover, the GI50 is 52.8 µM (inactive) in the assay with Malme-3M; > 100 µM (inactive) in the assay with DU-145; > 100 µM (inactive) in the assay on SN12C; > 100 µM (inactive) in the assay with HOP-92; > 100 µM (inactive) in the assay on HOP-62; > 100 µM (inactive) in the assay with RPMI-8226. Moreover, the GI50 in the assay on BT-549, in the assay on ACHN, in the assay on NCI-H226, in the assay with OVCAR-3 and in the assay with UACC-62 was > 100 µM (inactive) in each case.
For the compound `CCOC(=O)/C(C(N)=O)=C(/O)c1cnccn1`, the GI50 in the assay with SR, in the assay with M14, with SNB-19, in the assay with LOX IMVI, in the assay on MCF7 and with SF-295 was > 100 µM (inactive) throughout. The GI50 in the assay with CCRF-CEM, with Malme-3M, in the assay with DU-145, in the assay with SN12C, with HOP-92 and in the assay on RPMI-8226 was > 100 µM (inactive) in each case. Further, the GI50 in the assay on BT-549, in the assay with ACHN, in the assay on NCI-H226, in the assay on OVCAR-3 and in the assay with UACC-62 was > 100 µM (inactive) each time.
On to `COc1ccc2c(c1)CC1(O)COc3cc(OC)ccc3C1O2` (stereo unspecified), for which the GI50 with SR, in the assay with M14, with LOX IMVI, in the assay on MCF7, in the assay with SF-295 and with CCRF-CEM was > 100 µM (inactive) in each case. Further, the GI50 in the assay on Malme-3M was > 100 µM (inactive); in the assay with DU-145, > 100 µM (inactive); in the assay on SN12C, > 100 µM (inactive); with HOP-92, > 100 µM (inactive); with HOP-62 it was > 100 µM (inactive); in the assay with RPMI-8226 it was 59 µM (inactive). Besides, the GI50 with BT-549, in the assay with ACHN, in the assay on NCI-H226, in the assay on OVCAR-3 and in the assay on UACC-62 was > 100 µM (inactive) throughout.
On to `CCOc1ccccc1/N=N/C1C(=O)N(C(=O)CC(=O)Nc2ccccc2OC)N=C1C` (stereo unspecified), for which the GI50 in the assay with SR is > 10 µM (inactive); in the assay with M14, > 100 µM (inactive); in the assay with LOX IMVI, > 100 µM (inactive); in the assay on MCF7 it was > 100 µM (inactive); in the assay on SF-295 it was 20.9 µM (inactive); in the assay on CCRF-CEM, > 100 µM (inactive). Also, the GI50 was > 100 µM (inactive) in the assay with Malme-3M; 71.3 µM (inactive) in the assay on DU-145; > 100 µM (inactive) in the assay with SN12C; 20.3 µM (inactive) in the assay with HOP-92; 18.7 µM (inactive) with HOP-62; 45.2 µM (inactive) with RPMI-8226. Also, the GI50 is > 100 µM (inactive) in the assay with BT-549; > 100 µM (inactive) in the assay on ACHN; > 100 µM (inactive) in the assay on NCI-H226; > 100 µM (inactive) in the assay with OVCAR-3; 25.7 µM (inactive) with UACC-62.
As for `O=c1cc(-c2ccccc2)oc2cc(Oc3nnnn3-c3ccccc3)ccc12`, the GI50 is 44.9 µM (inactive) in the assay on SR; 36.5 µM (inactive) with M14; 55.8 µM (inactive) in the assay with SNB-19; 38.9 µM (inactive) in the assay with LOX IMVI; 16.3 µM (inactive) in the assay on MCF7; 46.2 µM (inactive) in the assay on SF-295. In addition, the GI50 with CCRF-CEM is 69.2 µM (inactive); in the assay with Malme-3M it was 33.4 µM (inactive); in the assay on DU-145, 32.5 µM (inactive); in the assay with SN12C, 60.8 µM (inactive); in the assay with HOP-92, 2.37 µM (inactive); with HOP-62 it was 93.8 µM (inactive). The GI50 in the assay on RPMI-8226 was 51.4 µM (inactive); with BT-549, 21.4 µM (inactive); in the assay on ACHN it was 4.18 µM (inactive); with NCI-H226, 9.42 µM (inactive); in the assay on OVCAR-3 it was 55.6 µM (inactive); with UACC-62 it was > 100 µM (inactive).
For `COC(=O)/C=C\C(C#N)(C#N)/N=C/c1ccc(OC)cc1`, the GI50 is 0.681 µM (active) in the assay on SR; 3.08 µM (inactive) with M14; > 44.7 µM (inactive) with SNB-19; 3.12 µM (inactive) in the assay on LOX IMVI; 2.73 µM (inactive) in the assay on MCF7; 25.1 µM (inactive) in the assay on SF-295. For the same compound, the GI50 with CCRF-CEM is 0.162 µM (active); in the assay with Malme-3M it was 1.73 µM (inactive); with DU-145, 7.01 µM (inactive); with SN12C, 15.3 µM (inactive); in the assay on HOP-92, 1.92 µM (inactive); with HOP-62 it was 17.7 µM (inactive). Besides, the GI50 was 0.48 µM (active) with RPMI-8226; 5.04 µM (inactive) in the assay with BT-549; 2.82 µM (inactive) in the assay on ACHN; 10.8 µM (inactive) in the assay with NCI-H226; 2.72 µM (inactive) with OVCAR-3; 15.9 µM (inactive) with UACC-62.
As to `O=C(CC(=O)N(C(=O)c1ccccc1)c1ccc(Cl)cc1)N/N=C\c1ccccc1O`, the GI50 is 29.4 µM (inactive) in the assay on SR; > 100 µM (inactive) in the assay on M14; 30.3 µM (inactive) with SNB-19; 58.1 µM (inactive) with LOX IMVI; 60.7 µM (inactive) with MCF7; 25.9 µM (inactive) in the assay on SF-295. Also, the GI50 is 2.86 µM (inactive) with CCRF-CEM; > 100 µM (inactive) in the assay with Malme-3M; > 100 µM (inactive) in the assay with DU-145; > 100 µM (inactive) in the assay with SN12C; 24.6 µM (inactive) in the assay on HOP-92; 31.8 µM (inactive) with HOP-62. The GI50 in the assay on RPMI-8226 is > 100 µM (inactive); with BT-549, 21.1 µM (inactive); with ACHN, 77.3 µM (inactive); with NCI-H226, 35.5 µM (inactive); in the assay with OVCAR-3, > 100 µM (inactive).
Regarding `Fc1cccc(Cl)c1C1SCc2nc3cc4ccccc4cc3n21` (stereo unspecified), the GI50 in the assay with SR is 8.32 µM (inactive); in the assay with M14 it was > 100 µM (inactive); with SNB-19 it was 52.7 µM (inactive); in the assay on LOX IMVI, > 100 µM (inactive); with MCF7, > 100 µM (inactive); with SF-295, 62.7 µM (inactive). Moreover, the GI50 in the assay with CCRF-CEM was > 100 µM (inactive); with Malme-3M it was 43.4 µM (inactive); with DU-145, > 100 µM (inactive); in the assay on SN12C, 61.1 µM (inactive); with HOP-92 it was 19.6 µM (inactive); with HOP-62 it was 35 µM (inactive). Further, the GI50 in the assay on RPMI-8226 was > 100 µM (inactive); in the assay on BT-549 it was > 100 µM (inactive); with ACHN it was > 100 µM (inactive); in the assay with NCI-H226, 33.8 µM (inactive); in the assay on OVCAR-3 it was 66.1 µM (inactive); in the assay on UACC-62 it was 43.6 µM (inactive).
Regarding `COc1cc2c(cc1OC)C(CCN)=NCC2`, the GI50 in the assay with SR was 4.58 µM (inactive); in the assay on M14, 17.2 µM (inactive); in the assay on SNB-19, 41.4 µM (inactive); with LOX IMVI, 18.8 µM (inactive); in the assay with MCF7 it was 18.2 µM (inactive); in the assay with SF-295 it was > 100 µM (inactive). Moreover, the GI50 with CCRF-CEM was 2.19 µM (inactive); in the assay with Malme-3M it was 18.8 µM (inactive); with DU-145, 17.9 µM (inactive); in the assay with SN12C, 19 µM (inactive); with HOP-92 it was 6.82 µM (inactive); with HOP-62 it was 21.1 µM (inactive). Besides, the GI50 in the assay on RPMI-8226 is 5.33 µM (inactive); with BT-549, 19.1 µM (inactive); with ACHN it was 16.6 µM (inactive); with NCI-H226, > 46.1 µM (inactive); in the assay with OVCAR-3, 18 µM (inactive); in the assay on UACC-62 it was 18.2 µM (inactive).
As to `N#C[BH2-][n+]1ccc(C(=O)NNCc2ccc(F)cc2)cc1`, the GI50 with SR, in the assay on M14, in the assay on SNB-19, in the assay on LOX IMVI, with MCF7 and in the assay on SF-295 was > 100 µM (inactive) each time. Besides, the GI50 with CCRF-CEM, in the assay with Malme-3M, in the assay on DU-145, with SN12C, in the assay on HOP-92 and in the assay with RPMI-8226 was > 100 µM (inactive) throughout. Further, the GI50 in the assay on BT-549, in the assay with ACHN, in the assay on NCI-H226, with OVCAR-3 and in the assay with UACC-62 was > 100 µM (inactive) in each case.
